What was measured:
[1] = system: Nicotiana benthamiana WT plants; assay: IR thermography of leaf temperature, N. benthamiana; format: in vivo; conditions: nontransformed leaves, 24 hours after spraying, 50 μM ABA or 100 μM iSB07 or iSB09, compared to mock
Experimental: IR images were taken using a FLIR […] thermocamera 1 day after the treatment (for N. benthamiana) or 2 and 5 days (for S. lycopersicum). Quantification was performed using the FLIR tools software on fully expanded leaves by analyzing 10 sections per leaf. At least six plants per genotype and treatment were analyzed in each experiment. Experiments were repeated twice. The average plant temperature ± SD of all the plants for each treatment and genotype was calculated and used to report the increase in temperature produced by each treatment. Statistical comparisons among genotypes were performed by either pairwise t tests or one-way ANOVA.

[2] = system: Arabidopsis thaliana plants (WT Col-0, CsPYL1^5m lines); assay: Whole-plant gas exchange, stomatal conductance (Gs); format: in vivo
Experimental: A. thaliana seeds were planted in specific gas exchange pots, where above- and below-ground parts can be separated by glass into 2:1 (v:v) peat:vermiculite mixture. The plants were grown in growth chambers (Snijders Scientific, Drogenbos, Belgium) at 12/12 photoperiod, 23/18°C temperature, 160 μmol m^−2 s^−1 light, and 70% relative humidity and were 23 to 28 days old during gas exchange experiments. Whole-rosette stomatal conductances were recorded with an eight-chamber custom-built temperature-controlled gas exchange device as described before ([72]). Plants were inserted into the measurement cuvettes and allowed to stabilize at standard conditions: ambient CO2, ~420 ppm; air temperature, 24° ± 0.5°C; light, 160 μmol m^−2 s^−1; relative air humidity, 66 ± 3%. For sprayings, plants were removed from gas exchange cuvettes, sprayed with respective solutions, and put back into the cuvettes for stomatal conductance recordings for 56 min. To check the long-term effect of compounds on plants, stomatal conductance measurements were performed about 24 and 48 hours after sprayings. In the meantime, plants were kept in growth chambers as described above. Photographs of plants were taken after the experiment, and leaf rosette area was calculated using ImageJ 1.37v [National Institutes of Health (NIH), USA]. Stomatal conductance for water vapor was calculated with a custom-written program as described ([72]).

tomato plants = assay: IR thermography of leaf temperature, tomato; format: in vivo, Solanum lycopersicum; conditions: 10 μM
Experimental: For experiments using N. benthamiana or S. lycopersium, 1-month-old plants grown under long-day conditions (16-hour light/8-hour dark) were sprayed with 10 mM MES (pH 5.7) + 0.02% Silwet L77 supplemented with either 50 μM ABA, or the indicated concentration of iSB07/iSB09 or 0.1% DMSO as a mock-treated control. IR images were taken using a FLIR E95 thermocamera 1 day after the treatment (for N. benthamiana) or 2 and 5 days (for S. lycopersicum). Quantification was performed using the FLIR tools software on fully expanded leaves by analyzing 10 sections per leaf. At least six plants per genotype and treatment were analyzed in each experiment. Experiments were repeated twice. The average plant temperature ± SD of all the plants for each treatment and genotype was calculated and used to report the increase in temperature produced by each treatment. Statistical comparisons among genotypes were performed by either pairwise t tests or one-way ANOVA.
Fig. S6. QB lacks bioactivity in tomato whereas iSB09 is
(A) Quantification of the leaf temperature difference at 2 and 5 days after spraying tomato plants with 0.1 % DMSO
(mock- treated control), 10 µM iSB09 or 10 µM QB.
Asterisk indicates p<0.001 (Student’s t test). Values show individual points and average ± SD (n=4 replicates for mock and chemical treatments). (B) IR-images of representative tomato plants at 2 days after being treated with 0.1 % DMSO
Photographs were taken with white light (leaf panel) or infrared thermography (right panel) using the camera FLIR
HAB1 phosphatase activity in presence of PYL4. IC50 values for iSB09 or QB-dependent inhibition of HAB1 by AtPYL4. Values (average of duplicates) show PP2C activity after incubation with the indicated concentration of ligand and AtPYL4 at 1:2 ratio (1 µM phosphatase:2 µM receptor).
(1 picture or pasted object on this page, not shown here)

[3] = system: RAB18/RD29B gene expression; assay: RT-qPCR of RAB18/RD29B expression; parameters: species or system Arabidopsis thaliana; conditions: in vivo
Experimental: RNA was extracted from seedlings using NucleoSpin RNA Plant kit from Machery-Nagel, following the manufacturer’s instructions. Complementary DNA (cDNA) was synthesized from 1 μg of total purified RNA using 30 U of RevertAid Reverse Transcriptase (Thermo Fisher Scientific). Reverse transcription quantitative polymerase chain reaction (RT-qPCR) was performed using PyroTaq EvaGreen qPCR Master Mix 5X from Cultek, which includes EvaGreen Dye and carboxy-X-rhodamine (ROX) as a passive reference dye. The primer pairs used for this analysis were described previously ([42]). qPCR was performed in a QuantStudio 3 (Applied Biosystems). Relative quantification of gene expression data was carried out using the 2^−ΔΔCt or comparative Ct method. Expression levels were normalized using the Ct values obtained for the actin-8 gene. The presence of a single PCR product was further verified by dissociation analysis in all amplifications. The mean and SD of three independent experiments are shown.

In the case of `CCn1c(=O)cc(C)c2cc(CNS(=O)(=O)c3ccccc3)ccc21` [iSB09], the “leaf temperature by thermal imaging” value [1] is reported as “increased leaf temperature”, the “effect on stomatal conductance (Gs)” value ([2]; WT, spraying with 5 μM) is reported as “nonsignificant” and the “reduction of stomatal conductance (Gs)” value ([2]; WT, spraying with 20 μM) is reported as “effective”. For the same molecule, the “duration of the effect on Gs” value ([2]; transgenic lines, 5 μM) was at least 48 h, the “reduction of Gs 24 and 48 hours after spraying” value ([2]; transgenic lines, 5 μM) was “significantly evident” and the “bioactivity in tomato (leaf temperature)” value (tomato plants; 2 and 5 days after spraying) was “active”. For the same molecule, the “persistence of the effect on leaf temperature after spraying” value (tomato plants; tomato) was “up to 5 days” and the “RAB18/RD29B up-regulation in CsPYL1^5m plants relative to WT plants” value [3] was “markedly higher”.
